The values below are quoted from earlier work in patent US20040138296A1, “Amyloid immunization and Cox-2 inhibitors for the treatment of alzheimer's disease” (Pharmacia Corporation, priority 2002, published 2004).

SMILES strings stand for the structures.

One data set relates to neurons. The conditions noted are these: Abeta (25-35) and Abeta (1-40).
Data set [1] concerns AD patients. The note with it: for other adverse effects: metrifonate in Phase III trials.
Data set [2] has as its system glia reaction, iNOS production. The note with it: once a day, seven days following the injection.
The next data set concerns NG108-15 cells. The note with it: by inhibition of APP mRNA level.
The subject of data set [3] is mild or moderately impaired Alzheimer's disease patients. The note with it: 100-150 mg, 6 months.
For data set [4], the system named is microglial and astrocytic activation. The conditions noted are these: adult rats, Abeta (1-42) into nucleus basalis.
The test system of data set [5] is AD patients. The conditions noted are these: over 300 AD patients.

In the case of `CCN1CC/C(=C\c2cc(C(C)(C)C)c(O)c(C(C)(C)C)c2)S1(=O)=O` [Compound S-2474], the “Abeta induced cell death of neurons” value with neurons was “significantly prevented”.
In the case of `COc1cc2c(cc1OC)C(=O)C(CC1CCN(Cc3ccccc3)CC1)C2` (centres unmarked) [Donepezil], the AD-associated deterioration result with AD patients [1] (controlled trials, mild to moderately severe AD patients) is reported as “can delay AD-associated deterioration”. In the data set on AD patients [1] (patients), the gastrointestinal side effects entry was “relatively low incidence of gastrointestinal side effects”.
Turning to `CCN(C)C(=O)Oc1cccc([C@H](C)N(C)C)c1` [Rivastigmine], the duration of action in the data set with AD patients [1] (human, in vivo) was 10 h. In the data set on AD patients [1] (patients), the gastrointestinal side effects entry is “some gastrointestinal side effects” and the other adverse effects result is listed as “weight loss”.
Consider `Nc1c2c(nc3ccccc13)CCCC2` [Tacrine], for which the half-life result in the data set with AD patients [1] (cholinesterase inhibitor in AD use) was “short half-life”. Also, the hepatotoxicity entry in the data set on AD patients [1] (patients) is given as “hepatotoxic effects in a number of patients”.
For `CC(C)Cc1ccc(C(C)C(=O)O)cc1` (centres unmarked) [ibuprofen], in data set [2], the astrocytic reaction entry is “no effect on astrocytic reaction”, the microglia reaction result is on record as “attenuated microglia reaction” and the “number of iNOS-positive cells” value is “reduced the number of iNOS-positive cells”.
Turning to `COc1ccc2c(c1)c(CC(=O)O)c(C)n2C(=O)c1ccc(Cl)cc1` [indomethacin], the “production of amyloid β-peptide and a secreted form of APP” value in the data set on NG108-15 cells is “suppressed production”. The “cognitive decline versus placebo” value in data set [3] is on record as “appeared to protect the patients”.
With `COP(=O)(OC)C(O)C(Cl)(Cl)Cl` (centres unmarked) [metrifonate], in the data set on AD patients [1] (patients), the other adverse effects entry is “leg cramps and muscle cramps”.
For the compound `CS(=O)(=O)Nc1ccc([N+](=O)[O-])cc1Oc1ccccc1` [nimesulide, N-(4-Nitro-2-phenoxy-phenyl)-methanesulfonamide], in data set [2], the astrocytic reaction entry is reported as “no effect on astrocytic reaction”, the microglia reaction entry is given as “attenuated microglia reaction” and the “number of iNOS-positive cells” value was “reduced the number of iNOS-positive cells”.
On to `CS(=O)(=O)c1ccc(C2=C(c3ccccc3)C(=O)OC2)cc1` [rofecoxib], for which, in data set [4], the “microglial and astrocytic activation” value is “attenuated microglial and astrocytic activation”.
Consider `C#CCN(C)[C@H](C)Cc1ccccc1` [selegeline, Selegiline], for which the “progression of the disease” value in the data set with AD patients [5] is “slow the progression of the disease”.
In the case of `Cc1c(C)c2c(c(C)c1O)CC[C@@](C)(CCC[C@H](C)CCC[C@H](C)CCCC(C)C)O2` [vitamin E, alpha-tocopherol], the “progression of the disease” value in the data set on AD patients [5] was “slow the progression of the disease”.
